Results as given in patent US20200024278A1, “COMPOSITION COMPRISING ANTIBIOTIC COMPOUND AND AN HETEROCYCLIC COMPOUND AND THEIR USE IN PREVENTING OR TREATING BACTERIAL INFECTIONS” (MUTABILIS, priority 2016, published 2020).
Read-outs that look alike come from different tables or passages of the source.

Test system: PAE 27853
Format: cell-based, P. aeruginosa
Conditions: tntbc: Too numerous to be counted
Method: Method 4: Determination of the Spontaneous Mutation Frequency of the Compounds Alone and Combined with Antibiotics.
Bacterial isolates (Table 3) were grown overnight at 35° C. on TSA plates (Becton-Dickinson and Company) in ambient air. After 24 h of incubation, isolated bacterial colonies were added to cation-adjusted Mueller-Hinton broth (ca-MHB; Becton-Dickinson and Company) and cultured for approximately 6 h at 35° C. The pre-culture was stopped once bacteria have reached an OD600 nm of 0.5 for 200 μL. The bacterial suspension was centrifuged at 4000 rpm for 20 min. The supernatant was then discarded and the bacterial pellet was dissolved in ca-MHB to obtain 10^9 to 10^10 CFU/mL. Assays including Fosfomycin were supplemented with 25 μg/ml of Glucose-6-phosphate. 100 μL of the adjusted bacterial suspension were spread on agar plates containing different concentrations of the compounds of the present invention alone or combined with an antibacterial (Table 1). The plates were incubated for 24-48 h at 35° C. in ambient air. CFU were numerated on each agar plate containing compound. The number of resistant colonies obtained was divided by the starting inoculum to give the frequency of spontaneous resistance for a given incubation time (24 and 48 h).

Structure (SMILES): O=C(O)c1cn(C2CC2)c2cc(N3CCNCC3)c(F)cc2c1=O [CIP, Ciprofloxacin]
- Frequency of spontaneous resistance (single agent at 4.MIC): 5.1E−08
- Frequency of spontaneous resistance (single agent at 8.MIC): 4.0E−09
